Assay [1] is filed under the species Cavia porcellus. Put plainly: Compound tested for SP-induced plasma extravasation in guinea pig perorally. The format is functional. As to conditions: po, read-out: ID50 (the source's name).
For assay [2], the system named is Cavia porcellus. Put plainly: Compound was tested for blockade of locomotor activity in guinea pig, elicited by icv administered Sar9Met(O2)-SP. The format is functional. As to conditions: central, read-out: ID50 (the source's name).
The species entered for assay [3] is Cavia porcellus. Put plainly: Compound tested for blockade of cisplatin-induced emesis in guinea pig perorally. The format is functional. Conditions: po, read-out: ID50 (the source's name).
Assay [4] is filed under the species Cavia porcellus. Put plainly: Inhibition of aerosolized capsaicin-induced plasma protein extravasation in guinea pig lung by peroral dose. The format is functional. As to conditions: read-out: ID50 (the source's name).
For assay [5], the species on record is Cavia porcellus. Put plainly: Inhibition of capsaicin-induced plasma extravasation in guinea pig ureter by peroral dose. Conditions: po, read-out: ID50 (the source's name). The format is functional.
The next assay concerns the target Substance-P receptor (Homo sapiens, UniProt P25103). The experiment in a line: Antagonist activity for Tachykinin receptor 1 as displacement of [3H]-Substance P in human IM-9 cells. The format is functional, cell-based.
Assay [6] has as its system Cavia porcellus. The experiment in a line: Compound was tested for blockade of locomotor activity in the guinea pig elicited by icv administered Sar9Met(O2)-SP. Conditions: central, read-out: ID50 (the source's name). The format is functional.
The species named for assay [7] is Cavia porcellus. The experiment in a line: Inhibition of aerosolized capsaicin-induced plasma protein extravasation in guinea pig ureter by peroral dose. Conditions: read-out: ID50 (the source's name). The format is functional.

Each structure is given as a SMILES string.

Substance-P receptor, sequence (P25103 whole entry): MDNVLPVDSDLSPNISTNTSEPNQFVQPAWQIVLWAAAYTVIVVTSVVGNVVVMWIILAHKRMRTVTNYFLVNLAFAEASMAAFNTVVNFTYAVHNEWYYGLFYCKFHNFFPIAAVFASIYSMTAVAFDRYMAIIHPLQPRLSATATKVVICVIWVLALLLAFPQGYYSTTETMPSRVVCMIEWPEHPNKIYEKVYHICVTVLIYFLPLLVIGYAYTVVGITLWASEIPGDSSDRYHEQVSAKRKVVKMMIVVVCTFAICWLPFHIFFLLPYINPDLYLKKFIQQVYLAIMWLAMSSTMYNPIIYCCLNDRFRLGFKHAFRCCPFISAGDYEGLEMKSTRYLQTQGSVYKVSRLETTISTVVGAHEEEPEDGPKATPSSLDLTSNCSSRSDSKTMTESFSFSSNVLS

With `COc1ccc(OC(F)(F)F)cc1CN[C@H]1CCCN[C@H]1c1ccccc1`, the ED50 in the assay listed under Cavia porcellus [1] was 0.05 mg/kg; with Cavia porcellus [2] it was 0.01 mg/kg; in the assay filed under Cavia porcellus [3] it was 0.08 mg/kg; in the assay filed under Cavia porcellus [4] it was 0.01 mg/kg; in the assay filed under Cavia porcellus [5] it was 0.02 mg/kg.
In the case of `CC(C)Oc1ccc(OC(F)(F)F)cc1CN[C@H]1CCCN[C@H]1c1ccccc1`, the 50% inhibitory concentration (IC50) (commonly the concentration needed to halve the response being measured) at Substance-P receptor is 0.18 nM.
`FC(F)(F)Oc1ccccc1CN[C@H]1CCCN[C@H]1c1ccccc1` had an IC50 on Substance-P receptor of 0.8 nM.
On to `Oc1ccc(OC(F)(F)F)cc1CN[C@H]1CCCN[C@H]1c1ccccc1`, for which, on Substance-P receptor, the IC50 came out at 10.9 nM.
Still for that read-out and setting: next, `COc1ccc(N(C)S(C)(=O)=O)cc1CN[C@H]1CCCN[C@H]1c1ccccc1`: 0.11 nM.
In turn, `COc1ccc(Cl)cc1CN[C@H]1CCCN[C@H]1c1ccccc1` displayed an IC50 at Substance-P receptor of 0.14 nM.
Still for that read-out and setting: next, `CCOc1ccc(OC(F)(F)F)cc1CN[C@H]1CCCN[C@H]1c1ccccc1`: 0.14 nM; `COc1ccc(OC)c(CN[C@H]2CCCN[C@H]2c2ccccc2)c1`: 0.09 nM.
Still for that read-out and setting: then `CC(C)Oc1ccccc1CN[C@H]1CCCN[C@H]1c1ccccc1`, with 0.46 nM.
The same measure, in the same setting: then `FC(F)Oc1ccccc1CN[C@H]1CCCN[C@H]1c1ccccc1`, with 0.41 nM; and `COc1ccc(N(C)C)cc1CN[C@H]1CCCN[C@H]1c1ccccc1`, with 0.56 nM.
Consider `COc1ccccc1CN[C@H]1CCCN[C@H]1c1ccccc1` [CP-99994], for which the ED50 in the assay listed under Cavia porcellus [1] was 31 mg/kg; with Cavia porcellus [6], 0.6 mg/kg; in the assay filed under Cavia porcellus [7] it was 2.9 mg/kg; in the assay listed under Cavia porcellus [4], 5 mg/kg.
